Measured values published in patent US4695580A, “Phenylserine derivatives and processes for preparing the same” (Sumitomo Pharmaceuticals Company, Ltd., priority 1983, dated 1987).
Structures can show the parent of a compound that is named as a salt.

How the values were obtained:
SRS-A = test: Anti-SRS-A activity by Magnus method, isolated guinea pig ileum; format: cell-based; conditions: Cavia porcellus, read-out: Inhibition (anti-SRS-A activity, inhibition rate); for inhibition at 1 µM: drug at 10^-6 M (values marked *); for inhibition at 1 µg/mL: 5 min, drug at 10^-6 g/ml (values without *)
Description: Anti-SRS-A activity of the drugs (the compounds of the present invention) was assayed by using isolated ileum of guinea pig (weighing 300-400 g, male).
SRS-A sample was prepared as follows.
Male albino guinea-pigs were administered by intraperitoneal and subcutaneous injection of 50 mg ovalbumin emulsified with a half amount of Freund's complete adjuvant every other day (total three times). 4 Weeks after the administration lungs were isolated from guinea-pigs and chopped into small pieces. The tissue was placed in Tyrode solution containing indomethacin (1μg/ml) and incubated at 37° C. for 15 min. The incubated solution was then centrifuged and the supernatant fluid was used for the SRS-A sample.
The anti-SRS-A activity was assayed by Magnus method, i.e. a modified method by Eda et al. [cf. Bulletin of Pharmacology in Japan, 66, 194-213 (1970)] using isolated guinea pig ileum. That is, an isolated ileum of guinea pig was hung within an organ bath which was filled with a Tyrode solution containing mepyramine (0.4 μg/ml) and atropine (0.35,/μg/ml) at 37° C. under aeration. The SRS-A sample was given until reproducible contractions were obtained. A solution of the drug (the compounds of the present inventions was added thereto in the final concentration of 10^-6 g/ml or 10^-6 M. After 5 minutes, the SRS-A sample was again acted, and the change of contractile response was measured. Based on the change of contractile response, the anti-SRS-A activity (inhibition rate) was calculated by the following equation: [formula] wherein
a^1 : Contractile response before administration of a drug.
a^2 : Contractile response after administration of a drug.

5-lipoxygenase = target: T1, 5-lipoxygenase (Cavia porcellus, UniProt A0A286X958); test: 5-Lipoxygenase inhibitory activity (inhibition of 5-HETE production) in guinea pig abdominal leucocytes; format: cell-based; conditions: 10 μM compound, A 23187, 14C-arachidonic acid, read-out: Inhibition (5-HETE production, inhibition rate)
T1 construct: leucocytes isolated from abdominal cavity of guinea pig; endogenous in cells; host or cells: leucocytes isolated from the abdominal cavity of guinea pig (intact cells)
T1 sequence (A0A286X958 1-674): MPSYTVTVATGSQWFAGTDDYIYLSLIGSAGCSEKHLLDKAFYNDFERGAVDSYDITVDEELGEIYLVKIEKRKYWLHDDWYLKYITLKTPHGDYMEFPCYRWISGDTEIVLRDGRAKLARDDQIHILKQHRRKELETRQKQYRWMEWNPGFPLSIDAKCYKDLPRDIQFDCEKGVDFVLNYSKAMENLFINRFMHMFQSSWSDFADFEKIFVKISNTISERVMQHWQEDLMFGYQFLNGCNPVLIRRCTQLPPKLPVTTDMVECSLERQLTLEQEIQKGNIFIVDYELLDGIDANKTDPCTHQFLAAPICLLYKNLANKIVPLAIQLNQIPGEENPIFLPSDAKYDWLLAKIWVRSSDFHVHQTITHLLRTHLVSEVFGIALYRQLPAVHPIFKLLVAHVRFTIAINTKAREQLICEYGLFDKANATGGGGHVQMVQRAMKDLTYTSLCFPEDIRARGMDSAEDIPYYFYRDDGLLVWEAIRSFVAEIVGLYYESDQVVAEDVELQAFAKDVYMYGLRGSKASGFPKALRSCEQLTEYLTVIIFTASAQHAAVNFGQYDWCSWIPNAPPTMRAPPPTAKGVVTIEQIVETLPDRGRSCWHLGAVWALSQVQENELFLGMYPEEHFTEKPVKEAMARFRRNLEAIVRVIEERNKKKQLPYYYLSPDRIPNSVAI
Description: The inhibitory activity was assayed in the same manner as described by J. Harvey et al. That is, leucocytes isolated from abdominal cavity of guinea pig were suspended in Krebs Ringer buffer (KRB, pH 7.4) in a concentration of 2.2×10^7 […]. The leucocytes suspension (935 μl) was preincubated with shaking at 37° C. for 10 minutes, and thereto was added a solution (10 μl) of test drugs (the compounds of the present invention) in dimethylsulfoxide (DMSO) (the final concentration of the compound being 10 μM in the solution). The mixture was incubated for 10 minutes, and then, ^14 C-arachidonic acid (0.1 μCi, 50 μl) (in 5% ethanol/KRB) and A 23187 (J. Pharmacol. Methods, 9, 147-155(1983), 5 μg in 5 μl DMSO) were added thereto, and the mixture was further incubated for 10 minutes. Ice-cooled 0.2M aqueous citric acid solution (100 μl) was added thereto in order to stop the reaction, and then, water (4 ml) was further added thereto. The mixture was twice extracted with ethyl acetate (each 2.5 ml), and the organic layer was distilled to dryness under nitrogen. The resulting residue was dissolved in ethyl acetate and the solution was applied onto a TLC plate. After developing with toluene-dioxane-acetic acid (65:34:1.5 V/V), 5-HETE (5-hydroxyeicosatetraenoic acid) produced by 5-lipoxygenase was measured with TLC scanner. The inhibition rate (%) was calculated by comparing the amount of 5-HETE between the addition and non-addition of a drug by the following equation: [formula] wherein
b^1 : Amount of produced 5-HETE in case of non-addition of a drug.
b^2 Amount of produced 5-HETE in case of addition of a drug.

Row | inhibition at 10 µM (5-lipoxygenase) [%] | SMILES | inhibition at 1 µM (SRS-A) [%] | inhibition at 1 µg/mL (SRS-A) [%]
1 |  | O=C([C@@H](NCCCc1ccccc1)[C@H](O)c1ccc(O)c(O)c1)N1CCCC1 (relative stereo) [Compd. No. 13] | 100 | 
2 | > 70 | CC(CCc1ccccc1)N[C@H](C(=O)N1CCCC1)[C@H](O)c1ccc(O)c(O)c1 (relative stereo) [Compd. No. 19, DL-Threo-3-(3,4-dihydroxyphenyl)-N-(1-methyl-3phenylpropyl)serine pyrrolidine amide] |  | 100
3 |  | COC(=O)[C@@H](NC(C)CCc1ccccc1)[C@H](O)c1ccc(O)c(O)c1 (relative stereo) [Compd. No. 120, DL-threo-3-(3,4-dihydroxyphenyl)-N-(1-methyl-3-phenylpropyl)serine methyl ester] |  | 97
4 | > 70 | COC(=O)[C@@H](NC(C)CCc1ccc(OC)cc1)[C@H](O)c1ccc(O)c(O)c1 (relative stereo) [Compd. No. 122, DL-threo-3-(3,4-dihydroxyphenyl)-N-[1-methyl-3-(p-methoxyphenyl)propyl]serine methyl ester] |  | 94
5 | > 70 | CCOC(=O)[C@@H](NC(C)CCc1ccccc1)[C@H](O)c1ccc(O)c(O)c1 (relative stereo) [Compd. No. 132, DL-Threo-3-(3,4-dihydroxyphenyl)-N-(1-methyl-3-phenylpropyl)serine ethyl ester] |  | 82
6 |  | CC(CCc1ccccc1)N[C@H](C(=O)OC(C)C)[C@H](O)c1ccc(O)c(O)c1 (relative stereo) [Compd. No. 158, DL-threo-3-(3,4-dihydroxyphenyl)-N-(1-methyl-3-phenylpropyl)serine isopropyl ester] |  | 96
7 |  | CC(C)COC(=O)[C@@H](NC(C)CCc1ccccc1)[C@H](O)c1ccc(O)c(O)c1 (relative stereo) [Compd. No. 170, DL-threo-3-(3,4-dihydroxyphenyl)-N-(1-methyl-3-phenylpropyl)serine isobutyl ester] |  | 85
8 |  | CC(CCc1ccccc1)N[C@H](C(=O)NN)[C@H](O)c1ccc(O)c(O)c1 (relative stereo) [Compd. No. 178, DL-threo-3-(3,4-dihydroxyphenyl)-N-(1-methyl-3-phenylpropyl)serine hydrazide] |  | 81
9 | > 70 | CC(CCc1ccccc1)N[C@H](CO)[C@H](O)c1ccc(O)c(O)c1 (relative stereo) [Compd. No. 183, DL-threo-1-(3,4-dihydroxyphenyl)-2-(1-methyl-3-phenylpropyl)amino-1,3-propanediol 1/2 oxalate] |  | 97
10 |  | CC(CCc1ccccc1)N[C@H](COC(N)=O)[C@H](O)c1ccc(O)c(O)c1 (relative stereo) [Compd. No. 189, DL-threo-1-(3,4-dihydroxyphenyl)-2-(1-methyl-3-phenylpropyl)-amino-3-carbamoyloxypropanol] |  | 98
11 |  | CNC(=O)[C@@H](NC(C)CCc1ccccc1)[C@H](O)c1ccc(O)c(O)c1 (relative stereo) [compound 48] |  | 100
12 | > 70 | CC(CCc1ccccc1)N[C@H](C(=O)N1CCc2ccccc21)[C@H](O)c1ccc(O)c(O)c1 (relative stereo) [compound 77] | 96 | 
13 | > 70 | COC(=O)[C@@H](NC(C)CCC(C)C)[C@H](O)c1ccc(O)c(O)c1 (relative stereo) [compound 142] |  | 91
14 |  | COC(=O)[C@@H](NC(C)CCc1ccc(O)cc1)[C@H](O)c1ccc(O)c(O)c1 (relative stereo) [compound 143] |  | 83
15 |  | COC(=O)[C@@H](NC(C)CCCCC(=O)Nc1ccc(C(F)(F)F)cc1)[C@H](O)c1ccc(O)c(O)c1 (relative stereo) [compound 146] |  | 94
16 |  | CCCCc1ccc(NC(=O)CCCCC(C)N[C@H](C(=O)OC)[C@H](O)c2ccc(O)c(O)c2)cc1 (relative stereo) [compound 147] |  | 100
17 |  | CC(CCc1ccccc1)N[C@H](C(N)=O)[C@H](O)c1ccc(O)c(O)c1 (relative stereo) [compound 177, DL-threo-3-(3,4-dihydroxphenyl)-N-(1-methyl-3-phenylpropyl)serine amide] |  | 86
18 |  | CC(CCc1ccccc1)N[C@H](C(=O)N1CCCC1)[C@H](O)c1ccc(O)c(O)c1 (stereo partly drawn) [Compd. No. 10, L-Threo-3-(3,4-dihydroxyphenyl)-N-(1-methyl-3-phenylpropyl)serine pyrrolidine amide] | 100 | 
19 |  | COC(=O)[C@H](NC(C)CCc1ccccc1)[C@@H](O)c1ccc(O)c(O)c1 (stereo partly drawn) [Compd. No. 156, D-threo-3-(3,4-dihydroxyphenyl)-N-(1-methyl-3-phenylpropyl)serine methyl ester] |  | 90
20 |  | COc1cc(C)c(CCC(C)N[C@H](C(=O)N2CCCC2)[C@H](O)c2ccc(O)c(O)c2)c(C)c1C (some centres unmarked) [compound 28] | 94 | 
21 |  | CC(CCc1ccc(F)cc1)N[C@H](C(=O)N1CCCC1)[C@H](O)c1ccc(O)c(O)c1 (some centres unmarked) [compound 29] | 97 | 
22 |  | CC(CCc1cccc2ccccc12)N[C@H](C(=O)N1CCCC1)[C@H](O)c1ccc(O)c(O)c1 (some centres unmarked) [compound 34] | 92 | 
23 |  | CC(CCc1ccco1)N[C@H](C(=O)N1CCCC1)[C@H](O)c1ccc(O)c(O)c1 (some centres unmarked) [compound 35] | 87 | 
24 |  | CCCCc1ccc(NC(=O)CCCCC(C)N[C@H](C(=O)N2CCCC2)[C@H](O)c2ccc(O)c(O)c2)cc1 (some centres unmarked) [compound 41] | 81 | 
25 |  | CC(CCCCC(=O)Nc1ccc(C(F)(F)F)cc1)N[C@H](C(=O)N1CCCC1)[C@H](O)c1ccc(O)c(O)c1 (some centres unmarked) [compound 42] | 97 | 
26 |  | COC(=O)[C@@H]1CCCN1C(=O)[C@@H](NC(C)CCc1ccccc1)[C@H](O)c1ccc(O)c(O)c1 (some centres unmarked) [compound 65] | 85 | 
